The numbers were not newly measured in article PMC3389233 (Bioorganic & medicinal chemistry, 2012), which cites them from elsewhere.

What is called Kd is the concentration at which binding is half-saturated.

Read-outs that look alike come from different tables or passages of the source.

The target in this series is HPPK.

On to `Nc1ncnc2c1ncn2[C@@H]1O[C@H](COP(=O)(O)OP(=O)(O)OP(=O)(O)O)[C@@H](O)[C@H]1O` [MgATP], for which, for the setting “MgATP binding to the enzyme first”, the Kd is 2.6 to 4.5 µM.
`Nc1nc2c(c(=O)[nH]1)N=C(CO)CN2` [HP, 6-hydroxymethyl-7,8-dihydropterin]: the Kd result (rapid addition of HP after MgATP binding) is listed as “sub-µM range”.
